Data reported in patent US9873709B2 (priority 2013, dated 2018).
pIC50: −log10 of the molar value.

These compounds were tested on JAK1-dependent STAT6 phosphorylation downstream of IL-13 stimulation in TF-1 human erythroleukemia cells (assay: cells). Conditions: TF-1, read-out: IL-13-pSTAT6 IC50.

pIC50 | SMILES
6.82 | O=C(CCC(F)(F)F)N1CC=C(c2cccn3nc(Nc4ccc(C(=O)N5CCC6(CCCNC6)C5)cc4)nc23)CC1 (centres unmarked) [Example 2-253, 1-[4-[2-[4-(2,9-diazaspiro[4.5]decane-2-carbonyl)anilino]-[1,2,4]triazolo[1,5-a]pyridin-8-yl]-3,6-dihydro-2H-pyridin-1-yl]-4,4,4-trifluoro-butan-1-one]
6.53 | O=C(NC1CCNC1)c1ccc(Nc2nc3c(C4=CCN(C(=O)CCC(F)(F)F)CC4)cccn3n2)cc1 (centres unmarked) [Example 2-255, N-pyrrolidin-3-yl-4-[[8-[1-(4,4,4-trifluorobutanoyl)-3,6-dihydro-2H-pyridin-4-yl][1,2,4]triazolo[1,5 a]pyridin-2-yl]amino]benzamide]
7.16 | NC1CN(C(=O)c2ccc(Nc3nc4c(C5=CCN(C(=O)CCC(F)(F)F)CC5)cccn4n3)cc2)C1 [Example 2-256, 1-[4-[2-[4-(3-aminoazetidine-1-carbonyl)anilino]-[1,2,4]triazolo[1,5-a]pyridin-8-yl]-3,6-dihydro-2H-pyridin-1-yl]-4,4,4-trifluoro-butan-1-one]
8.24 | CN1CCOC2(C1)CN(C(=O)c1ccc(Nc3nc4c(C5=CCN(C(=O)CCC(F)(F)F)CC5)cccn4n3)cc1)C2 [Example 2-259, 4,4,4-trifluoro-1-[4-[2-[4-(8-methyl-5-oxa-2,8-diazaspiro[3.5]nonane-2-carbonyl)anilino]-[1,2,4]triazolo[1,5-a]pyridin-8-yl]-3,6-dihydro-2H-pyridin-1-yl]butan-1-one]
8.28 | O=C(CCC(F)(F)F)N1CC=C(c2cccn3nc(Nc4ccc(C(=O)N5CCN(C6CCC6)CC5)cc4)nc23)CC1 [Example 2-260, 1-[4-[2-[4-(4-cyclobutylpiperazine-1-carbonyl)anilino]-[1,2,4]triazolo[1,5-a]pyridin-8-yl]-3,6-dihydro-2H-pyridin-1-yl]-4,4,4-trifluoro-butan-1-one]
7.01 | CN1CCN(C(=O)C2COCCN2C(=O)c2ccc(Nc3nc4c(C5=CCN(C(=O)CCC(F)(F)F)CC5)cccn4n3)cc2)CC1 (centres unmarked) [Example 2-262, 4,4,4-trifluoro-1-[4-[2-[4-[3-(4-methylpiperazine-1-carbonyl)morpholine-4-carbonyl]anilino]-[1,2,4]triazolo[1,5-a]pyridin-8-yl]-3,6-dihydro-2H-pyridin-1-yl]butane-1-one]
7.93 | CN1CCC(OC(=O)c2ccc(Nc3nc4c(C5=CCN(C(=O)CCC(F)(F)F)CC5)cccn4n3)cc2)CC1 [Example 2-264, (1-methyl-4-piperidyl) 4-[[8-[1-(4,4,4-trifluorobutanoyl)-3,6-dihydro-2H-pyridin-4-yl]-[1,2,4]triazolo[1,5-a]pyridin-2-yl]amino]benzoate]
8.01 | CC(C)CN1CCN(C(=O)c2ccc(Nc3nc4c(C5=CCN(C(=O)CCC(F)(F)F)CC5)cccn4n3)cc2)CC1 [Example 2-266, 4,4,4-trifluoro-1-[4-[2-[4-(4-isobutylpiperazine-1-carbonyl)anilino]-[1,2,4]triazolo[1,5-a]pyridin-8-yl]-3,6-dihydro-2H-pyridin-1-yl]butan-1-one]
8.06 | CN1CCC(N(C)C(=O)c2ccc(Nc3nc4c(C5=CCN(C(=O)CCC(F)(F)F)CC5)cccn4n3)cc2)C1 (centres unmarked) [Example 2-267, N-methyl-N-(1-methylpyrrolidin-3-yl)-4-[[8-[1-(4,4,4-trifluorobutanoyl)-3,6-dihydro-2H-pyridin-4-yl]-[1,2,4]triazolo[1,5-a]pyridin-2-yl]amino]benzamide]
8.29 | CC1CC(C)CN(CCNC(=O)c2ccc(Nc3nc4c(C5=CCN(C(=O)CCC(F)(F)F)CC5)cccn4n3)cc2)C1 (centres unmarked) [Example 2-269, N-[2-(3,5-dimethyl-1-piperidyl)ethyl]-4-[[8-[1-(4,4,4-trifluorobutanoyl)-3,6-dihydro-2H-pyridin-4-yl]-[1,2,4]triazolo[1,5-a]pyridin-2-yl]amino]benzamide]
7.79 | CN1CCN(CCNC(=O)c2ccc(Nc3nc4c(C5=CCN(C(=O)CCC(F)(F)F)CC5)cccn4n3)cc2)CC1 [Example 2-270, N-[2-(4-methylpiperazin-1-yl)ethyl]-4-[[8-[1-(4,4,4-trifluorobutanoyl)-3,6-dihydro-2H-pyridin-4-yl]-[1,2,4]triazolo[1,5-a]pyridin-2-yl]amino]benzamide]
7.35 | CN1CCC(CCNC(=O)c2ccc(Nc3nc4c(C5=CCN(C(=O)CCC(F)(F)F)CC5)cccn4n3)cc2)CC1 [Example 2-274, N-[2-(1-methyl-4-piperidyl)ethyl]-4-[[8-[1-(4,4,4-trifluorobutanoyl)-3,6-dihydro-2H-pyridin-4-yl]-[1,2,4]triazolo[1,5-a]pyridin-2-yl]amino]benzamide]
7.43 | CNC(=O)C1CN(C(=O)c2ccc(Nc3nc4c(C5=CCN(C(=O)CCC(F)(F)F)CC5)cccn4n3)cc2)CCN1C (centres unmarked) [Example 2-275, N,1-dimethyl-4-[4-[[8-[1-(4,4,4-trifluorobutanoyl)-3,6-dihydro-2H-pyridin-4-yl]-[1,2,4]triazolo[1,5-a]pyridin-2-yl]amino]benzoyl] piperazine-2-carboxamide]
6.89 | CNC(=O)C1CN(C)CCN1C(=O)c1ccc(Nc2nc3c(C4=CCN(C(=O)CCC(F)(F)F)CC4)cccn3n2)cc1 (centres unmarked) [Example 2-276, N,4-dimethyl-1-[4-[[8-[1-(4,4,4-trifluorobutanoyl)-3,6-dihydro-2H-pyridin-4-yl]-[1,2,4]triazolo[1,5-a]pyridin-2-yl]amino]benzoyl] piperazine-2-carboxamide]
7.70 | O=C(CCC(F)(F)F)N1CC=C(c2cccn3nc(Nc4ccc(C(=O)N5CCC(Cc6cccnc6)CC5)cc4)nc23)CC1 [Example 2-277, 4,4,4-trifluoro-1-[4-[2-[4-[4-(3-pyridylmethyl)piperidine-1-carbonyl]anilino]-[1,2,4]triazolo[1,5-a]pyridin-8-yl]-3,6-dihydro-2H-pyridin-1-yl]butan-1-one]

The next lines start with the compound.

SMILES | pIC50
CCOC(=O)N1CC=C(c2cccn3nc(Nc4ccc(C(=O)N5CCCCC5Cc5ccccn5)cc4)nc23)CC1 (centres unmarked) [Example 2-235, ethyl 4-[2-[4-[2-(2-pyridylmethyl)piperidine-1-carbonyl]anilino]-[1,2,4]triazolo[1,5-a]pyridin-8-yl]-3,6-dihydro-2H-pyridine-1-carboxylate] | 7.64
CCOC(=O)N1CC=C(c2cccn3nc(Nc4ccc(C(=O)N5CCCC(O)(CN6CCCC6)CC5)cc4)nc23)CC1 (centres unmarked) [Example 2-241, ethyl 4-[2-[4-[4-hydroxy-4-(pyrrolidin-1-ylmethyl)azepane-1-carbonyl]anilino]-[1,2,4]triazolo[1,5-a]pyridin-8-yl]-3,6-dihydro-2H-pyridine-1-carboxylate] | 7.20
CCOC(=O)N1CC=C(c2cccn3nc(Nc4ccc(C(=O)NCc5ccc(C)nc5)cc4)nc23)CC1 [Example 2-245, ethyl 4-[2-[4-[(6-methyl-3-pyridyl)methylcarbamoyl]anilino]-[1,2,4]triazolo[1,5-a]pyridin-8-yl]-3,6-dihydro-2H-pyridine-1-carboxylate] | 7.91
CCOC(=O)N1CC=C(c2cccn3nc(Nc4ccc(C(=O)N[C@H]5CCCNC5)cc4)nc23)CC1 [Example 2-250, ethyl 4-[2-[4-[[(3S)-3-piperidyl]carbamoyl]anilino]-[1,2,4]triazolo[1,5-a]pyridin-8-yl]-3,6-dihydro-2H-pyridine-1-carboxylate] | 7.12
O=C(CCC(F)(F)F)N1CC=C(c2cccn3nc(Nc4ccc(C(=O)N5CCOC6(CCNCC6)C5)cc4)nc23)CC1 [Example 2-254, 4,4,4-trifluoro-1-[4-[2-[4-(1-oxa-4,9-diazaspiro[5.5]undecane-4-carbonyl)anilino]-[1,2,4]triazolo[1,5-a]pyridin-8-yl]-3,6-dihydro-2H-pyridin-1-yl]butan-1-one] | 6.23
O=C(CCC(F)(F)F)N1CC=C(c2cccn3nc(Nc4ccc(C(=O)N5CCCC56CCCNC6)cc4)nc23)CC1 (centres unmarked) [Example 2-257, 1-[4-[2-[4-(1,9-diazaspiro[4.5]decane-1-carbonyl)anilino]-[1,2,4]triazolo[1,5-a]pyridin-8-yl]-3,6-dihydro-2H-pyridin-1-yl]-4,4,4-trifluoro-butan-1-one] | 7.22
O=C(CCC(F)(F)F)N1CC=C(c2cccn3nc(Nc4ccc(C(=O)N5CCCC56CCNCC6)cc4)nc23)CC1 [Example 2-258, 1-[4-[2-[4-(1,8-diazaspiro[4.5]decane-1-carbonyl)anilino]-[1,2,4]triazolo[1,5-a]pyridin-8-yl]-3,6-dihydro-2H-pyridin-1-yl]-4,4,4-trifluoro-butan-1-one] | 6.62
CN(C)C(=O)C1(c2ccncc2)CCCN1C(=O)c1ccc(Nc2nc3c(C4=CCN(C(=O)CCC(F)(F)F)CC4)cccn3n2)cc1 (centres unmarked) [Example 2-261, N,N-dimethyl-2-(4-pyridyl)-1-[4-[[8-[1-(4,4,4-trifluorobutanoyl)-3,6-dihydro-2H-pyridin-4-yl]-[1,2,4]triazolo[1,5-a]pyridin-2-yl]amino]benzoyl] pyrrolidine-2-carboxamide] | 7.33
CC1CC(C(=O)N2CC=C(c3cccn4nc(Nc5ccc(C(=O)N(C)C6CCN(C)CC6)cc5)nc34)CC2)C1 (centres unmarked) [Example 2-263, N-methyl-4-[[8-[1-(3-methylcyclobutanecarbonyl)-3,6-dihydro-2H-pyridin-4-yl]-[1,2,4]triazolo[1,5-a]pyridin-2-yl]amino]-N-(1-methyl-4-piperidyl)benzamide] | 7.53
O=C(CCC(F)(F)F)N1CC=C(c2cccn3nc(Nc4ccc(C(=O)N5CCCCC5Cc5ccccn5)cc4)nc23)CC1 (centres unmarked) [Example 2-265, 4,4,4-trifluoro-1-[4-[2-[4-[2-(2-pyridylmethyl)piperidine-1-carbonyl]anilino]-[1,2,4]triazolo[1,5-a]pyridin-8-yl]-3,6-dihydro-2H-pyridin-1-yl]butan-1-one] | 8.38
O=C(CCC(F)(F)F)N1CC=C(c2cccn3nc(Nc4ccc(C(=O)N5CCCC5c5ccncc5)cc4)nc23)CC1 (centres unmarked) [Example 2-273, 4,4,4-trifluoro-1-[4-[2-[4-[2-(4-pyridyl)pyrrolidine-1-carbonyl]anilino]-[1,2,4]triazolo[1,5-a]pyridin-8-yl]-3,6-dihydro-2H-pyridin-1-yl]butan-1-one] | 8.26
